# Measurements as given in patent publication US20130005825A1, “Inhibition of the Survival of Lymphoma by Cyclohexenone Compounds from Antrodia Camphorata” (Golden Biotechnology Corporation, priority 2009, published 2013).
# System: lymphoma cell line U937
# Experiment: In vitro survival assay (MTT) for anti-lymphoma effects
# Format: cell-based
# Details: Homo sapiens, U-937, U937 cells, 48 hours treatment, read-out: IC50 (half inhibition concentration), survival of lymphoma cells
# Description: Inhibiting effects of lymphoma cells by cyclohexenone compounds of Antrodia camphorata from example 1 were assessed according to the anticancer-drug screening model of National Cancer Institute (NCI). The compound 4-hydroxy-2,3-dimethoxy-6-methyl-5-(3,7,11-trimethyl-dodeca-2,6,10-trienyl)-cyclohex-2-enone from example 1 was added into the culture media of lymphoma cell line U937 to determine the survival rates. Survival of cell was analyzed using MTT assay. U937 cell line was a human histiocytic lymphoma cell line.
# MTT assay is commonly used to analyze cell proliferation, survival rate of viable cells and cytotoxicity. MTT (3[4,5-dimethylthiazol-2-yl]-2,5-diphenyltetrazolium bromide) is a yellow dye which can be converted to water-insoluble purple formazan on the reductive cleavage of its tetrazolium ring by the succinate tetrazolium reductase in mitochondria of cells. The amount of formazan produced is used to detect the number of viable cells and calculate the survival rates.
# The U937 cells were cultivated in RPMI 1640 medium supplemented with 10% fetal bovine serum, 10 U/ml of Penicillin and 100 μg/ml of Streptomycin at 37° C., 5% CO2 for 24 hours. […] The absorbances were measured at 570 nm with an ELISA Reader to determine the survival rates.
smiles,measurement,value
"COC1=C(OC)C(O)C(C/C=C(\C)CC/C=C(\C)CCC=C(C)C)C(C)C1=O (stereo not shown) [formula 2, 4-hydroxy-2,3-dimethoxy-6-methyl-5-(3,7,11-trimethyl-dodeca-2,6,10-trienyl)-cyclohex-2-enone]",IC50,9.71 µg/mL
